Test results reported in patent US7488718B2, “Synthetic HLA binding peptide analogues and uses thereof” (Sloan Kettering Institue for Cancer Research, priority 2003, dated 2009).
Residues, ends and D or L forms follow the SMILES beside them.

Assays:
[1] = test system: HLA matched chronic myelogenous leukemia cell lines or CML blasts; settings: T cells generated with analogue peptide
Procedure: Supernatant fluids were harvested and radioactivity was measured in a gamma counter. Percent specific lysis was determined from the following formula: 100×[(experimental release minus spontaneous release)/(maximum release minus spontaneous release)].

[2] = test system: CD8+ T cells; assay: Gamma interferon ELISPOT, CD8+ T cells after in vitro peptide stimulation; assay type: cell-based, human; settings: healthy HLA A0201 donors, peptide-pulsed T2 targets
[3] = molecular target: T1, HLA-A0201 molecules on T2 cells (Homo sapiens, UniProt P04439, D140Y/D185E/D98H/E176V/E277Q/G131W/G231S/I119V/I121R/I166T/I218V/L300P/L318F/N151K/N90K/P208A/P217A/Q86G/Q94H/R138H/R169H/T345S); assay: T2 assay for peptide binding to HLA A0201; settings: for binding to HLA A0201 molecules in T2 assay: bcr-abl b3a2 and b2a2 peptides
T1 construct: increase in the level of surface HLA-A0201 recognizable by specific mAb such as BB7.2; endogenous in cells; host or cells: T2 cells (human, TAP-deficient, HLA-A0201+)
Procedure: T2 cells (TAP−, HLA-A0201 +) were incubated overnight at 27° C. at 1×10E6 cells/ml in FCS-free RPMI medium supplemented with 5 μg/ml human β2 m (Sigma, St Louis, Mo.) in the absence, i.e., negative control, or presence of either a positive reference tyrosinase peptide or test peptides at various final concentrations of 50, 10, 1, and 0.1 μg/ml. Following a 4 h incubation with 5 μg/ml brefeldin A (Sigma), T2 cells were labeled for 30 min at 4° C. with a saturating concentration of anti-HLA-A2.1 (BB7.2) mAb, then washed twice. The cells then were incubated for 30 min at 4° C. with a saturating concentration of FITC-conjugated goat IgG F(ab′)2 anti-mouse Ig (Caltag, South San Francisco, Calif.), washed twice, fixed in PBS/1% paraformaldehyde and analyzed using a FACS Calibur cytofluorometer (Becton Dickinson, Immunocytometry systems, San Jose, Calif.).
The mean intensity of fluorescence (MIF) observed for each peptide concentration, after subtraction of the MIF observed without peptide, was used as an estimate of peptide binding. Stabilization assays were performed similarly. Following initial evaluation of peptide binding at time 0, cells were washed in RPMI complete medium to remove free peptides and incubated in the continuous presence of 0.5 μg/ml brefeldin-A for 2, 4, 6, and 8 hours. The amount of stable peptide-HLA-A2.1 complexes was estimated as described above by indirect immunofluorescence analysis. The half time of complexes is an estimate of the time required for a 50% reduction of the time 0 mean intensity of fluorescence value.
The immunogenicity of MHC class I-restricted peptides requires the capacity to bind and stabilize MHC class I molecules on the live cell surface. Moreover the computer prediction models above have only 60-80% predictive accuracy. Direct measurement of the strength of the interaction between the peptides and the HLA-A0201 molecule was made using a conventional binding and stabilization assay that uses the antigen-transporting deficient (TAP2-) HLA-A0201 human T2 cells. T2 cells lack TAP function and consequently are defective in properly loading class I molecules with antigenic peptides generated in the cytosol. The association of exogenously added peptides with thermolabile, empty HLA-A2 molecules stabilizes them and results in an increase in the level of surface HLA-A0201 recognizable by specific mAb such as BB7.2.

[4] = test system: CD3+ T cells; assay: Gamma interferon ELISPOT, CD3+ T cells after in vitro peptide stimulation; assay type: cell-based, human; settings: healthy HLA A0201 donors
[5] = molecular target: HLA A0201 (Homo sapiens, UniProt P04439, D140Y/D185E/D98H/E176V/E277Q/G131W/G231S/I119V/I121R/I166T/I218V/L300P/L318F/N151K/N90K/P208A/P217A/Q86G/Q94H/R138H/R169H/T345S); assay: BIMAS predicted binding score for HLA A0201; settings: p210F versus native CMLA2
Procedure: The synthetic peptide analogue segments are designed by making one or two amino acid substitutions in anchor or auxiliary residues. Although the native peptides particularly described herein are nonamers encompassing the anchor or auxiliary residues, analogues may be designed having about 70% to about 130% of the amino acids in the native peptide. In the instant invention the synthetic peptide analogues may have about 8-12 amino acids. Such substitutions are determined by a bioinformatic model system (BIMAS) which uses a matrix approach to predict binding and ranks the peptides based on predicted binding to the HLA molecule. The amino acid sequences and predicted score for binding to HLA A0201 and HLA A0301 are generated by online software BIMAS available at http://bimas.dcrt.nih.gov/cgi-bin/molbio/ken parker comboform and […] available at http://syfpeithi.bmi-heidelberg.com/.
Based on this information and by using the software of the Bioinformatics & Molecular Analysis Section (National Institutes of Health, Washington, D.C.) available at http://bimas.dcrt.nih.gov/cgi-bin/molbio/ken parker comboform. This software ranks 9-mer or 10-mer peptides on a predicted half-time dissociation coefficient from HLA class I molecules (Pinilla, et al. Curr Opin Immunol, 11(2): p. 193-202 (1999)). […]

## CC[C@H](C)[C@H](NC(=O)[C@H](CC(C)C)NC(=O)[C@@H](N)Cc1ccc(O)cc1)C(=O)N[C@@H](CC(N)=O)C(=O)N[C@@H](CCCCN)C(=O)N[C@@H](CCC(=O)O)C(=O)N[C@@H](CCC(=O)O)C(=O)N[C@@H](C)C(=O)N[C@@H](CC(C)C)C(=O)O [b3a2 A3, YLINKEEAL] (H-YLINKEEAL-OH; N-terminus and C-terminus assumed)
[1]
  cytotoxicity against CML cells expressing b3a2 or b2a2: Significant cytotoxicity was generated

## CC(C)C[C@H](NC(=O)[C@H](CC(C)C)NC(=O)[C@@H](N)CCCCN)C(=O)N[C@@H](CCC(N)=O)C(=O)N[C@@H](CCCNC(=N)N)C(=O)N1CCC[C@H]1C(=O)N[C@H](C(=O)N[C@@H](C)C(=O)N[C@H](C(=O)O)C(C)C)C(C)C [p210C] (H-KLLQRPVAV-OH; N-terminus and C-terminus assumed)
[1]
  cytotoxicity against CML cells expressing b3a2 or b2a2: Significant cytotoxicity was generated

## KLSSKALQV (analogue peptide p210B)
[2]
  immune response, IFN gamma secretion: No immune response could be generated

## KQSSKALQV (analogue peptide p210A)
[2]
  immune response, IFN gamma secretion: No immune response could be generated

## SSKALQRPV (native peptide CMLA2) [reference compound]
[3]
  binding to HLA A0201 molecules in T2 assay: weak binder
[3]; listed as CML A2
  binding to HLA A0201 molecules in T2 assay: natural weak binder

## TLFKQSSKV (analogue peptide p210D)
[2]
  immune response, IFN gamma secretion: produced an immune response in some of the donors tested

## YLFKQSSKV (analogue peptide p210E)
[2]
  immune response, IFN gamma secretion: produced an immune response in some of the donors tested

## YLGATLKGV (analogue peptide WT-1 D1)
[3]; WT-1 peptides
  binding to HLA A0201, thermostabilization on T2: significantly higher level of binding to HLA-A0201 over WT1-D

## YLINKEEAV (analogue peptide b3a2 A4)
[4]
  immune response, gamma interferon secretion: generated an immune response in two healthy donors

## YLINKVEAL (analogue peptide b3a2 A5)
[4]
  immune response, gamma interferon secretion: generated an immune response in two healthy donors

## YLKALQRPV (analogue peptide p210F)
[3]
  binding to HLA A0201 molecules in T2 assay: excellent avidity for HLA A0201 molecules
[5]
  BIMAS prediction improvement: 700 fold
[2]
  immune response, IFN gamma secretion: generated a more consistent and higher immune-responses
